Reference: paper PMC5315738 (Clinical Pharmacokinetics, 2016)
pKi: −log10 of the molar value. Like-named read-outs stand apart in the source and are kept apart here.

What was measured:
[1] = cited from earlier work
human serum albumin = settings: 45 g/L albumin, in vitro; cited from earlier work
[2] = all animal species (rabbits, rats, minipigs and mice), 0.05–0.5 μM; cited from earlier work
[3] = system: cytochrome P450 (CYP) isoenzymes; settings: human hepatocytes and human liver microsomes; ref Boehringer Ingelheim unpublished data, 26; cited from earlier work
[4] = cited from earlier work; remark: listed apart in the source
[5] = cited from earlier work; remark: listed apart in the source
[6] = physiological pH range of 1–7.5; cited from earlier work
[7] = system: OATP, OAT and OCT drug transporters; settings: transfected HEK293 cell lines; cited from earlier work
BCRP = settings: in vitro; cited from earlier work
[8] = rabbit; ref Boehringer Ingelheim unpublished data, 25, 28; cited from earlier work
[9] = cited from earlier work; remark: listed apart in the source
[10] = system: EGFR, HER2, ErbB4 phosphorylation and ErbB3 transphosphorylation; settings: wide variety of cell lines; cited from earlier work
HER2 = settings: HER2, cell-free; cited from earlier work
[11] = a P-gp substrate; cited from earlier work
[12] = mouse; ref Boehringer Ingelheim unpublished data, 25, 28; cited from earlier work
ErbB4 = settings: ErbB4, cell-free; cited from earlier work
[13] = cited from earlier work; remark: listed apart in the source
[14] = cited from earlier work; remark: listed apart in the source
P-gp [15] = settings: read-out: inhibition constant (K i), digoxin transport; cited from earlier work
[16] = cited from earlier work; for V z/F, gMean / gMean terminal half-life: 10–100 mg doses
[17] = after a high-fat, high-caloric meal; cited from earlier work
[18] = PopPK, cited from earlier work
[19] = human; cited from earlier work
[20] = type: in vivo; settings: human, plasma, oral
[21] = minipigs, cited from earlier work
[22] = cited from earlier work; remark: listed apart in the source
[23] = in vitro and in vivo toxicology studies; cited from earlier work
[24] = cited from earlier work; remark: listed apart in the source
[25] = LUX-Lung 3, cited from earlier work
P-gp [26] = settings: Caco-2 monolayers and human P-gp-expressing LLC-PK1 cells; cited from earlier work
[27] = afatinib 20 mg, ritonavir 200 mg twice daily administered 1 h before afatinib, healthy subjects

CN(C)C/C=C/C(=O)Nc1cc2c(Nc3ccc(F)c(Cl)c3)ncnc2cc1O[C@H]1CCOC1 [afatinib dimaleate]
dose recovered in the urine ([1]; within 216 h after oral dose of 15 mg [14C]-radiolabelled afatinib dimaleate): 4.29% | dose recovered in the faeces ([1]; within 312 h after oral dose of 15 mg [14C]-radiolabelled afatinib dimaleate): 85.4% | binding to isolated human serum albumin (human serum albumin): 79.6%

CN(C)CC=CC(=O)Nc1cc2c(Nc3ccc(F)c(Cl)c3)ncnc2cc1O[C@H]1CCOC1 [afatinib, N-[4-[(3-chloro-4-fluorophenyl)amino]-7-[[(3S)-tetrahydro-3-furanyl]oxy]-6-quinazolinyl]-4-(dimethylamino)-2-butenamide]
Mean plasma protein binding [2]: > 92% | potential to inhibit or induce CYP isoenzymes [3]: low potential to inhibit or induce | passive permeability through cell membranes [4]: high passive permeability | effect of renal impairment on plasma protein binding [5]: no effect | increase in AUC in patients with severe renal impairment ([5]; severe renal impairment): approximately 50% | solubility [6]: highly soluble | in vitro transport of afatinib by OATP, OAT, OCT [7]: no relevant in vitro transport | substrate and inhibitor of the efflux transporter BCRP (BCRP): substrate and inhibitor | excretion of unchanged parent compound [8]: > 87% | effect of hepatic impairment on plasma protein binding [9]: no effect | potency of inhibition of phosphorylation in cells [10]: low nanomolar range | potency to inhibit kinase (HER2): nanomolar potency | change in exposure on concomitant administration with sirolimus [11]: did not result in a clinically relevant change in exposure | urinary excretion of afatinib-related radioactivity ([1]; ADME study): < 5% | unchanged drug excreted in urine ([1]; approximate): approximately 5% | excretion of unchanged parent compound [12]: > 60% | potency to inhibit kinase (ErbB4): nanomolar potency | excretion of unchanged parent compound ([13]; rat, ref Boehringer Ingelheim unpublished data, 25, 28): > 50% | volume of distribution ([13]; rats, intravenous dosing): 16.2 L/kg | BCS class [14]: BCS class 1 or 3 | pKi (P-gp [15]): 5.47 | time to achieve steady-state ([16]; once-daily dosing): ≤ 8 days | V z/F, gMean ([16]; single doses): 1940 L | gMean terminal half-life ([16]; single doses): 21 h | Overall drug clearance (CL/F), gMean ([16]; single doses): 1050 mL/min | V z/F, gMean ([16]; steady state): 2770 L | gMean terminal half-life ([16]; steady state): 37 h | Overall drug clearance (CL/F), gMean ([16]; steady state): 898 mL/min | reduction of AUC∞ by food [17]: ~39% | reduction of C max by food [17]: approximately 50% | increase in exposure for CLCR 43 mL/min ([18]; 2.5th percentile): 27.8% | increase in exposure in female patients ([18]; accounting for all other covariate effects): 15% | decrease in exposure for food intake ([18]; food intake less than 3 h before or less than 1 h after afatinib administration): 26% | plasma protein bound [19]: approximately 95% | half-life [20]: ~37 h | volume of distribution ([21]; intravenous dosing): 12.4 L/kg | excretion of unchanged parent compound ([21]; ref Boehringer Ingelheim unpublished data, 25, 28): > 72% | increase in afatinib exposure (AUC∞) by ritonavir [22, 27]: 48% | increase in afatinib exposure (C max) by ritonavir [22, 27]: 39% | change in afatinib exposure by ritonavir ([22]; afatinib 40 mg, ritonavir taken concomitantly or 6 h after afatinib): did not relevantly change | genotoxicity [23]: no evidence of genotoxicity | decrease of mean time-matched QTcF between baseline and day 14 ([24]; afatinib 50 mg, over 1–24 h following administration, non-significant): 0.3 ms | proarrhythmic potential ([24]; dose of 50 mg): does not have proarrhythmic potential | interpatient variability in exposure (gCV) ([25]; day 1 of cycle three): 67% | interpatient variability in exposure (gCV) ([25]; day 1 of cycle two): 85% | substrate of the efflux transporter P-gp (P-gp [26]): P-gp substrate
